From publication PMC5605198, “MELK is not necessary for the proliferation of basal-like breast cancer cells” (eLife, 2017)
Read-outs that look alike come from different tables or passages of the source.

Tests used:
[1] = target: ABL (Homo sapiens, UniProt P00519); experiment: ICKP radiometric kinase assay; assay type: biochemical; settings: read-out: % AR (% kinase activity remaining)
[2] = target: SYK (Homo sapiens, UniProt P43405); experiment: ICKP radiometric kinase assay; assay type: biochemical; settings: read-out: % AR (% kinase activity remaining)
[3] = target: TAO1 (Homo sapiens, UniProt Q7L7X3); experiment: ICKP radiometric kinase assay; assay type: biochemical; settings: read-out: % AR (% kinase activity remaining)
[4] = target: PDK1 (Homo sapiens, UniProt O15530); experiment: ICKP radiometric kinase assay; assay type: biochemical; settings: read-out: % AR (% kinase activity remaining)
[5] = target: PAK2 (Homo sapiens, UniProt Q13177); experiment: ICKP radiometric kinase assay; assay type: biochemical; settings: read-out: % AR (% kinase activity remaining)
[6] = target: MAPKAP-K3 (Homo sapiens, UniProt Q16644); experiment: ICKP radiometric kinase assay; assay type: biochemical; settings: read-out: % AR (% kinase activity remaining)
MAPKAP-K3, sequence (Q16644 whole entry): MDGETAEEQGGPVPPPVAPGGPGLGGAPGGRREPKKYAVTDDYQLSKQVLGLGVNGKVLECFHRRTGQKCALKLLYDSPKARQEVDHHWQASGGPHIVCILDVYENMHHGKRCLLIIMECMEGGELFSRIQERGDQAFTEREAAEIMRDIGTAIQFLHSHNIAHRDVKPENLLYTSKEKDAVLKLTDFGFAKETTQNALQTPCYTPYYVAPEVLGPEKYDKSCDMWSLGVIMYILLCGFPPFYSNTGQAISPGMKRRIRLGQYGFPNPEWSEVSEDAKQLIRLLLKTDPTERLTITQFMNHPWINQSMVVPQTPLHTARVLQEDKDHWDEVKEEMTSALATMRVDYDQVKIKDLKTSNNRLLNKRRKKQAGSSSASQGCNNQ

[7] = target: PKD1 (Homo sapiens, UniProt Q15139); experiment: ICKP radiometric kinase assay; assay type: biochemical; settings: read-out: % AR (% kinase activity remaining)
[8] = target: IKK beta (Homo sapiens, UniProt O14920); experiment: ICKP radiometric kinase assay; assay type: biochemical; settings: read-out: % AR (% kinase activity remaining)
[9] = target: NEK6 (Homo sapiens, UniProt Q9HC98); experiment: ICKP radiometric kinase assay; assay type: biochemical; settings: read-out: % AR (% kinase activity remaining)
[10] = target: JAK2 (Homo sapiens, UniProt O60674); experiment: ICKP radiometric kinase assay; assay type: biochemical; settings: read-out: % AR (% kinase activity remaining)
JAK2, sequence (O60674 whole entry): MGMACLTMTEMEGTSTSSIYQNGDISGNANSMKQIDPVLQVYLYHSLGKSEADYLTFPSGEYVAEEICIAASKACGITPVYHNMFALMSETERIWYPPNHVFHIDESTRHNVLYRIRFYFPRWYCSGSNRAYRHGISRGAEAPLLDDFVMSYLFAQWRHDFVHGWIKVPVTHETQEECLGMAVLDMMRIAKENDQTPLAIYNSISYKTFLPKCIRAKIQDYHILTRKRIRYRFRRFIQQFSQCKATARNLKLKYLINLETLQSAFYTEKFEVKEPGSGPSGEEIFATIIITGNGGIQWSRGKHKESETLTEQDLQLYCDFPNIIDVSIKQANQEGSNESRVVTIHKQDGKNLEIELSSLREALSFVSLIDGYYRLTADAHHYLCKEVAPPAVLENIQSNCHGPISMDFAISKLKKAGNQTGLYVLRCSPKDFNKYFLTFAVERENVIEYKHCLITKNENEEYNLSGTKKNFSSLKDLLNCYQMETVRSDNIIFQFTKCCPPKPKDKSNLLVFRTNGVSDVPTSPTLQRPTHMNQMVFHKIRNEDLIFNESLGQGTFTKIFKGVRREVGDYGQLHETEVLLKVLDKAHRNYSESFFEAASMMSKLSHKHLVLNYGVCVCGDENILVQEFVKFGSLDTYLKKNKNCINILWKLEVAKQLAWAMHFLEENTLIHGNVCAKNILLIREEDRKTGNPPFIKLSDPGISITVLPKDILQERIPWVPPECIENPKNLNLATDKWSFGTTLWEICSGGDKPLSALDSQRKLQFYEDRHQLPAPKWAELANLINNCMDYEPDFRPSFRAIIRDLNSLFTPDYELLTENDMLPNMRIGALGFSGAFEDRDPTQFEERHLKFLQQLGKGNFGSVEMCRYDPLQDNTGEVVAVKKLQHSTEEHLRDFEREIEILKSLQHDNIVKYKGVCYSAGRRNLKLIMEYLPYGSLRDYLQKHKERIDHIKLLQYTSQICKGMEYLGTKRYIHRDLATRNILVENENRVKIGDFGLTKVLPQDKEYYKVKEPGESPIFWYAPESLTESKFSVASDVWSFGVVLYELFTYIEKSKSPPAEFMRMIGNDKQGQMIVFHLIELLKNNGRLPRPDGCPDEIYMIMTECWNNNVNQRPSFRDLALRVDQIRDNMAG

[11] = test system: MDA-MB-468 (second source); experiment: Cell proliferation assay (CellTiter-Glo); settings: Homo sapiens, MDA-MB-468, 168 h, read-out: 7-day antiproliferative IC50
[12] = target: PAK5 (Homo sapiens, UniProt Q9P286); experiment: ICKP radiometric kinase assay; assay type: biochemical; settings: read-out: % AR (% kinase activity remaining)
[13] = target: PIM1 (Homo sapiens, UniProt P11309); experiment: ICKP radiometric kinase assay; assay type: biochemical; settings: for remaining activity at 1 µM: read-out: % AR (% kinase activity remaining)
PIM1, sequence (P11309 whole entry, species assumed): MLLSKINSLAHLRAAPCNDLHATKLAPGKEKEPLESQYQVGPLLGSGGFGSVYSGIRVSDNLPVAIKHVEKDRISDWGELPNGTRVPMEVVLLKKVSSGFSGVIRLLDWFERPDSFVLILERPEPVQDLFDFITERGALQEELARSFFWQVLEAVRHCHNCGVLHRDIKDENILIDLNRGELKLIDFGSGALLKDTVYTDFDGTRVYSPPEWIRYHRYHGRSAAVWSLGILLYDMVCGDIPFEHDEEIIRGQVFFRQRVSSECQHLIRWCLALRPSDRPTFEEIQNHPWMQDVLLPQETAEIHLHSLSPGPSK

[14] = test system: HCC70; experiment: Cell proliferation assay (CellTiter-Glo); settings: Homo sapiens
[15] = target: MSK1 (Homo sapiens, UniProt O75582); experiment: ICKP radiometric kinase assay; assay type: biochemical; settings: read-out: % AR (% kinase activity remaining)
[16] = target: Aurora B (Homo sapiens, UniProt Q96GD4); experiment: ICKP radiometric kinase assay; assay type: biochemical; settings: read-out: % AR (% kinase activity remaining)
[17] = test system: ZR-75-1; experiment: Cell proliferation assay (CellTiter-Glo); settings: Homo sapiens, ZR-75-1, 72 h, read-out: 3-day antiproliferative IC50
[18] = target: TESK1 (Homo sapiens, UniProt Q15569); experiment: ICKP radiometric kinase assay; assay type: biochemical; settings: read-out: % AR (% kinase activity remaining)
[19] = target: NEK2a (Homo sapiens, UniProt P51955); experiment: ICKP radiometric kinase assay; assay type: biochemical; settings: read-out: % AR (% kinase activity remaining)
[20] = target: HIPK1 (Homo sapiens, UniProt Q86Z02); experiment: ICKP radiometric kinase assay; assay type: biochemical; settings: read-out: % AR (% kinase activity remaining)
[21] = target: MNK1 (Homo sapiens, UniProt Q9BUB5); experiment: ICKP radiometric kinase assay; assay type: biochemical; settings: read-out: % AR (% kinase activity remaining)
[22] = target: TBK1 (Homo sapiens, UniProt Q9UHD2); experiment: ICKP radiometric kinase assay; assay type: biochemical; settings: read-out: % AR (% kinase activity remaining)
[23] = target: DDR2 (Homo sapiens, UniProt Q16832); experiment: ICKP radiometric kinase assay; assay type: biochemical; settings: read-out: % AR (% kinase activity remaining)
DDR2, sequence (Q16832 22-855): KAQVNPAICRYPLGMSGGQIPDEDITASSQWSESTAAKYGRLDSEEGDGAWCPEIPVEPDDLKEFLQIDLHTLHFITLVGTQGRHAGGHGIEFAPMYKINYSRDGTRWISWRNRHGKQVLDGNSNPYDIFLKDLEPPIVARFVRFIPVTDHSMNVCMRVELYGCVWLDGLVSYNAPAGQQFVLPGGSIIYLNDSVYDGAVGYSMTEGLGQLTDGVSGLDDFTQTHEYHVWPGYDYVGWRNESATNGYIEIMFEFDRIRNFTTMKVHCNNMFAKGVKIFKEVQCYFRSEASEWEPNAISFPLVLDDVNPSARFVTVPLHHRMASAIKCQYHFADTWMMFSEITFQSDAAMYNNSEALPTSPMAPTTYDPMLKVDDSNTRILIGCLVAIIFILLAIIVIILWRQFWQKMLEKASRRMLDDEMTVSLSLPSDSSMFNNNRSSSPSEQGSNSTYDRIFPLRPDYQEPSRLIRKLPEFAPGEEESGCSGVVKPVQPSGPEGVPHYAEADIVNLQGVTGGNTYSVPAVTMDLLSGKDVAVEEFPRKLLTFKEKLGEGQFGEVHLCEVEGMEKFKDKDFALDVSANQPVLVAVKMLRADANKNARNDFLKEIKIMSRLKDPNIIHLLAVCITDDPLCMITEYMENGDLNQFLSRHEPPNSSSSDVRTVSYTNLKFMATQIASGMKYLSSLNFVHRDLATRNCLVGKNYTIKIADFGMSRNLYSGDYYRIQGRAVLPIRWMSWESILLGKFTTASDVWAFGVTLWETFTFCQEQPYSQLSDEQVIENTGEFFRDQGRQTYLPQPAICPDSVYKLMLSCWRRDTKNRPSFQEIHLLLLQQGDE

[24] = target: TGFBR1 (Homo sapiens, UniProt P36897); experiment: ICKP radiometric kinase assay; assay type: biochemical; settings: read-out: % AR (% kinase activity remaining)
[25] = target: TrkA (Homo sapiens, UniProt P04629); experiment: ICKP radiometric kinase assay; assay type: biochemical; settings: read-out: % AR (% kinase activity remaining)
[26] = target: ERK8 (Homo sapiens, UniProt Q8TD08); experiment: ICKP radiometric kinase assay; assay type: biochemical; settings: read-out: % AR (% kinase activity remaining)
[27] = target: BRSK2 (Homo sapiens, UniProt Q8IWQ3); experiment: ICKP radiometric kinase assay; assay type: biochemical; settings: read-out: % AR (% kinase activity remaining)
[28] = target: MEKK1 (Homo sapiens, UniProt Q13233); experiment: ICKP radiometric kinase assay; assay type: biochemical; settings: read-out: % AR (% kinase activity remaining)
[29] = target: p38 alpha (Homo sapiens, UniProt Q16539); experiment: ICKP radiometric kinase assay; assay type: biochemical; settings: read-out: % AR (% kinase activity remaining)
[30] = target: SIK3 (Homo sapiens, UniProt Q9Y2K2); experiment: ICKP radiometric kinase assay; assay type: biochemical; settings: read-out: % AR (% kinase activity remaining)
[31] = target: PKA (Homo sapiens, UniProt P17612); experiment: ICKP radiometric kinase assay; assay type: biochemical; settings: read-out: % AR (% kinase activity remaining)
[32] = target: MAPKAP-K2 (Homo sapiens, UniProt P49137); experiment: ICKP radiometric kinase assay; assay type: biochemical; settings: read-out: % AR (% kinase activity remaining)
[33] = target: WNK1 (Homo sapiens, UniProt Q9H4A3); experiment: ICKP radiometric kinase assay; assay type: biochemical; settings: read-out: % AR (% kinase activity remaining)
WNK1, sequence (Q9H4A3 whole entry): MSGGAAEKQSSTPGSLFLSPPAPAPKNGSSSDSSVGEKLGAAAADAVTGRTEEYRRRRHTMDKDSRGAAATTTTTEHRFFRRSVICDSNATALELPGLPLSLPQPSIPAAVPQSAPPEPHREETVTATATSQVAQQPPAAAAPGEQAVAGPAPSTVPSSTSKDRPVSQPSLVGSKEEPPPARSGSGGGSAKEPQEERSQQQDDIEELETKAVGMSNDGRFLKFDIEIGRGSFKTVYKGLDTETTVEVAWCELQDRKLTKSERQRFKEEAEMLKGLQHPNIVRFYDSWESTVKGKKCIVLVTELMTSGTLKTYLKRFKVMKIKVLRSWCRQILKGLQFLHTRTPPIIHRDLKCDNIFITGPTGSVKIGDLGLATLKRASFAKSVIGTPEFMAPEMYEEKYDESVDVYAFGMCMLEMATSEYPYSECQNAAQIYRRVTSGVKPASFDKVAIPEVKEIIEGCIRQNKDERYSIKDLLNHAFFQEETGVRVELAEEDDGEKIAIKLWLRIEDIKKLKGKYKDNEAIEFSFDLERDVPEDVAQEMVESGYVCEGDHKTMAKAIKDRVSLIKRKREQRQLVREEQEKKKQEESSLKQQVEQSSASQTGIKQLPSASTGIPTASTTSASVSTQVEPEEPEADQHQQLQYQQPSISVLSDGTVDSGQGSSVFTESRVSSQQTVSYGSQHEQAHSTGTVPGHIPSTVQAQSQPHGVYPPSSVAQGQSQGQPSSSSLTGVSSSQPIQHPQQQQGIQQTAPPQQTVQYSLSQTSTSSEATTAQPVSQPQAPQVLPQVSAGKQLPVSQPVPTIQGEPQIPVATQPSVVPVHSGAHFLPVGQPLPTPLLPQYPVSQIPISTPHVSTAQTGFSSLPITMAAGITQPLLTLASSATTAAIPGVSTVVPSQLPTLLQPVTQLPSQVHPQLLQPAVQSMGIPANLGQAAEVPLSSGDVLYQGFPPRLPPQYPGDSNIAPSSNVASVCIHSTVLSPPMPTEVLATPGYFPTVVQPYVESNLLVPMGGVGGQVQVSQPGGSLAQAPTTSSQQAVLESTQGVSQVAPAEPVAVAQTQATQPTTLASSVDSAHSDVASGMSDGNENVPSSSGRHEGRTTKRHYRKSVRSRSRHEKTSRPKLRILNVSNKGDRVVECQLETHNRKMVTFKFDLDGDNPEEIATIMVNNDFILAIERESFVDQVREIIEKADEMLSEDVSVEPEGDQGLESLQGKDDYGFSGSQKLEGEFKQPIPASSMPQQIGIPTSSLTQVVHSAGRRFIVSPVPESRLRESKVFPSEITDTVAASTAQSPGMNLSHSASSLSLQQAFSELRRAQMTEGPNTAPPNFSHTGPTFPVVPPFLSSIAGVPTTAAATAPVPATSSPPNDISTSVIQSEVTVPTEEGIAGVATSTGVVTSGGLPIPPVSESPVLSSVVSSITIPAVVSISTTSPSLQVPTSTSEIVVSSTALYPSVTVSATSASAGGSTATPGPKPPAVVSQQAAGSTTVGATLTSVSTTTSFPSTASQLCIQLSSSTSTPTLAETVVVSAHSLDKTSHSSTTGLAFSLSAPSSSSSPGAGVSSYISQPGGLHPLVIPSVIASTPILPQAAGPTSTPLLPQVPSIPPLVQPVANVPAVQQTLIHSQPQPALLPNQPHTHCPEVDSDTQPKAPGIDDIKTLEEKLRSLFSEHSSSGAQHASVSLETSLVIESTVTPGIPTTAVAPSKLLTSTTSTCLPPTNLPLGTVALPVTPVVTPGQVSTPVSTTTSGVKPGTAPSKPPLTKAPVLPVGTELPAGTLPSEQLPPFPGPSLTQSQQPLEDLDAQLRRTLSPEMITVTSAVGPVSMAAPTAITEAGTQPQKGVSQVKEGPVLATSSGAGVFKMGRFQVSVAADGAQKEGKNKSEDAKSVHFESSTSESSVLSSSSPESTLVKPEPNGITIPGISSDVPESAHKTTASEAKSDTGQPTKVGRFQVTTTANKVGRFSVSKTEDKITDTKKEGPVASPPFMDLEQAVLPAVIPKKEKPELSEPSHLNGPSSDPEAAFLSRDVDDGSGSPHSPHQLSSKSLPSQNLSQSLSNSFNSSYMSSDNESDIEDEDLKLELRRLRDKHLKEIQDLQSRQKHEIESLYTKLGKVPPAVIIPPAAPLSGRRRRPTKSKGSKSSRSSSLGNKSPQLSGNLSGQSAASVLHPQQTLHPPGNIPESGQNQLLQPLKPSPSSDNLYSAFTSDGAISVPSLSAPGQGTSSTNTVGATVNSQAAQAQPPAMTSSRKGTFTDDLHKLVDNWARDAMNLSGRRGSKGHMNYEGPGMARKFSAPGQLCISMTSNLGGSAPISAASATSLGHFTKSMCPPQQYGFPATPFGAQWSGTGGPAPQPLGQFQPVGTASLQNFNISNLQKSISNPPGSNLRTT

[34] = target: CAMKK beta (Homo sapiens, UniProt Q96RR4); experiment: ICKP radiometric kinase assay; assay type: biochemical; settings: read-out: % AR (% kinase activity remaining)
[35] = target: CLK2 (Homo sapiens, UniProt P49760); experiment: ICKP radiometric kinase assay; assay type: biochemical; settings: read-out: % AR (% kinase activity remaining)
[36] = target: MINK1 (Homo sapiens, UniProt Q8N4C8); experiment: ICKP radiometric kinase assay; assay type: biochemical; settings: read-out: % AR (% kinase activity remaining)
[37] = target: SGK1 (Homo sapiens, UniProt O00141); experiment: ICKP radiometric kinase assay; assay type: biochemical; settings: read-out: % AR (% kinase activity remaining)
[38] = target: mTOR (Homo sapiens, UniProt P42345); experiment: Z’-LYTE enzymatic assay; settings: Z’-LYTE assay at [ATP]=apparent Km; read-out: Biochemical IC50 mTOR
[39] = target: PIM2 (Homo sapiens, UniProt Q9P1W9); experiment: ICKP radiometric kinase assay; assay type: biochemical; settings: read-out: % AR (% kinase activity remaining)
[40] = target: PKC gamma (Homo sapiens, UniProt P05129); experiment: ICKP radiometric kinase assay; assay type: biochemical; settings: read-out: % AR (% kinase activity remaining)
[41] = target: MNK2 (Homo sapiens, UniProt Q9HBH9); experiment: ICKP radiometric kinase assay; assay type: biochemical; settings: read-out: % AR (% kinase activity remaining)
[42] = HCC70, 72 h, read-out: 3-day antiproliferative IC50
[43] = HCC70, 168 h, read-out: 7-day antiproliferative IC50

Compound `CN(C)C[C@H]1CC[C@H](N2C(=O)NCc3cnc4ccc(-c5cc(Cl)c(O)c(Cl)c5)cc4c32)CC1` [HTH-01-091, 9-(3,5-dichloro-4-hydroxyphenyl)-1-(trans-4-((dimethylamino)methyl)cyclohexyl)-3,4-dihydropyrimido[5,4 c]quinolin-2(1H)-one] has a remaining activity at 1 µM [1] of 70%, a remaining activity at 1 µM [2] of 112% and a remaining activity at 1 µM [3] of 18%. The remaining activity at 1 µM [4] was 102%, the remaining activity at 1 µM [5] was 88% and the remaining activity at 1 µM [6] was 89%. It also gave a remaining activity at 1 µM [7] of 79%, a remaining activity at 1 µM [8] of 104% and a remaining activity at 1 µM [9] of 95%. It also gave a remaining activity at 1 µM [10] of 39%, an IC50 [11] of 10700 nM and a remaining activity at 1 µM [12] of 73%. For the same compound, the remaining activity at 1 µM [13] was 1%, the IC50 ([13]; radioactive filter-binding assay provided by the ICKP, read-out: Enzymatic IC50 PIM1) was 60.6 nM and the IC50 [14, 42] was 8800 nM. For the same compound, the IC50 [14, 43] was 2430 nM, the remaining activity at 1 µM [15] was 65% and the remaining activity at 1 µM [16] was 35%. The IC50 [17] was > 10000 nM, the remaining activity at 1 µM [18] was 95% and the remaining activity at 1 µM [19] was 100%. It also gave a remaining activity at 1 µM [20] of 24%, a remaining activity at 1 µM [21] of 109% and a remaining activity at 1 µM [22] of 88%. For the same compound, the remaining activity at 1 µM [23] was 44%, the remaining activity at 1 µM [24] was 102% and the remaining activity at 1 µM [25] was 53%. The remaining activity at 1 µM [26] was 24%, the remaining activity at 1 µM [27] was 125% and the remaining activity at 1 µM [28] was 111%. For the same compound, the remaining activity at 1 µM [29] was 84%, the remaining activity at 1 µM [30] was 83% and the remaining activity at 1 µM [31] was 112%. It also gave a remaining activity at 1 µM [32] of 98%, a remaining activity at 1 µM [33] of 101% and a remaining activity at 1 µM [34] of 91%. For the same compound, the remaining activity at 1 µM [35] was 11%, the remaining activity at 1 µM [36] was 38% and the remaining activity at 1 µM [37] was 72%. For the same compound, the IC50 [38] was 632 nM, the remaining activity at 1 µM [39] was 2% and the remaining activity at 1 µM [40] was 71%. The remaining activity at 1 µM [41] was 103%.

For `CC(=O)c1cnc2ccc(-c3cc(Cl)c(O)c(Cl)c3)nc2c1N[C@H]1CC[C@H](CN(C)C)CC1` [OTSSP167], the remaining activity at 1 µM [1] was 1%, the remaining activity at 1 µM [2] was 7% and the remaining activity at 1 µM [3] was 3%. It also gave a remaining activity at 1 µM [4] of 4%, a remaining activity at 1 µM [5] of 74% and a remaining activity at 1 µM [6] of 94%. It also gave a remaining activity at 1 µM [7] of 6%, a remaining activity at 1 µM [8] of 41% and a remaining activity at 1 µM [9] of 92%. For the same compound, the remaining activity at 1 µM [10] was 3%, the IC50 [11] was 33 nM and the remaining activity at 1 µM [12] was 19%. It also gave a remaining activity at 1 µM [13] of 10%, an IC50 [14, 42] of 34 nM and an IC50 [14, 43] of 21 nM. For the same compound, the remaining activity at 1 µM [15] was 5%, the remaining activity at 1 µM [16] was 14% and the IC50 [17] was 55 nM. It also gave a remaining activity at 1 µM [18] of 51%, a remaining activity at 1 µM [19] of 59% and a remaining activity at 1 µM [20] of 0%. For the same compound, the remaining activity at 1 µM [21] was 28%, the remaining activity at 1 µM [22] was 6% and the remaining activity at 1 µM [23] was 0%. It also gave a remaining activity at 1 µM [24] of 16%, a remaining activity at 1 µM [25] of 1% and a remaining activity at 1 µM [26] of 1%. The remaining activity at 1 µM [27] was 2%, the remaining activity at 1 µM [28] was 96% and the remaining activity at 1 µM [29] was 10%. The remaining activity at 1 µM [30] was 4%, the remaining activity at 1 µM [31] was 12% and the remaining activity at 1 µM [32] was 14%. It also gave a remaining activity at 1 µM [33] of 111%, a remaining activity at 1 µM [34] of 2% and a remaining activity at 1 µM [35] of 0%. The remaining activity at 1 µM [36] was 2%, the remaining activity at 1 µM [37] was 12% and the IC50 [38] was 35.7 nM. For the same compound, the remaining activity at 1 µM [39] was 0%, the remaining activity at 1 µM [40] was 1% and the remaining activity at 1 µM [41] was 13%.
